Assays:
[1] = tested on: H1299 cells (human non-small cell lung cancer); test: MTT cytotoxicity assay, H1299; type: cell-based; conditions: Homo sapiens, NCI-H1299, 48 h of treatment, mean ± SEM
Text: (§1) All cell lines used in this study (human non-small cell lung cancer—H1299 (Accession Number—CRL-5803), human lung carcinoma—A549 (Accession Number—CCL-185), human breast adenocarcinoma—MCF-7 (Accession Number—HTB-22), human breast ductal carcinoma—BT474 (Accession Number—HTB-20)) were purchased from American Type Culture Collection (ATCC, Manassas, VA, USA). Human primary dermal fibroblasts (HPDF) derived from a patch of skin of healthy donors (n = 3) were obtained from the biobank of the Institute for Regenerative Medicine, Lomonosov Moscow State University, collection ID: MSU_FB (https://human.depo.msu.ru (accessed on 14 September 2021)). Cells were grown in DMEM media supplemented with 10% fetal bovine serum, 100 μg/mL gentamycin, and 2 mM of glutamine at 37 °C in a 5% CO2 atmosphere.
(§2) To carry out the MTT assay, 3500 cells per well were seeded in 96-well plates. A day after the seeding, triterpenoids or their derivatives dissolved in DMSO were added. DMSO was used as a control. At 48 h after cell seeding, 10 μL of 5 mg/mL Thiazolyl Blue (Paneko, Russia) solution was added to each well and cells were kept for 3 h at 37 °C in a CO2 incubator. After removing the thiazol-containing medium, 150 μL of isopropyl alcohol (supplemented with 40 mM HCl and 0.1% NP-40) was added to dissolve the MTT-formazan salt. The absorbance at 570 and 630 nm (reference) was measured using a BioRad iMark microplate reader (BioRad, Hercules, CA, USA). Four biological replicates were used for the experiment. The results were processed with Excel software (version number: 14.0.6023.1000 (32-bit)). IC50 values were calculated by using AAT Bioquest online calculator (https://www.aatbio.com/tools/ic50-calculator, accessed on 15 May 2023) and are represented as the mean ± SEM.

[2] = tested on: A549 cells (human lung carcinoma); test: MTT cytotoxicity assay, A549; type: cell-based; conditions: Homo sapiens, A549, 48 h, MTT assay, 48 h of treatment, mean ± SEM
Text: as §1
as §2, with “A day after the seeding, triterpenoids or their derivatives dissolved in DMSO were added.” left out, “At 48 h after cell seeding, 10 μL of 5 mg/mL Thiazolyl Blue (Paneko, Russia) solution was added to each well and cells were kept for 3 h at 37 °C in a CO2 incubator.” left out

[3] = tested on: MCF-7 cells (human breast adenocarcinoma); test: MTT cytotoxicity assay, MCF-7; type: cell-based; conditions: for IC50: Homo sapiens, MCF7, MTT assay, 48 h of treatment, mean ± SEM; for Chou–Talalay combination index (CI): MCF7 cells, based on IC50 values for parent acid, F16 [23] and conjugate, CI < 1 synergism
Text: as §1, §2

[4] = tested on: BT474 cells (human breast ductal carcinoma); test: MTT cytotoxicity assay, BT474; type: cell-based; conditions: BT-474, 48 h of treatment, mean ± SEM
Text: as §1, §2

[5] = tested on: Human primary dermal fibroblasts (HPDF); test: MTT cytotoxicity assay, HPDF; type: cell-based; conditions: for IC50: Homo sapiens, Fibroblast, MTT assay, 48 h of treatment, mean ± SEM; for Selectivity index (SI): between tumor cells H1299, A549 and MCF-7 and fibroblasts
Text: as §1
as §2, with “A day after the seeding, triterpenoids or their derivatives dissolved in DMSO were added.” left out, “At 48 h after cell seeding, 10 μL of 5 mg/mL Thiazolyl Blue (Paneko, Russia) solution was added to each well and cells were kept for 3 h at 37 °C in a CO2 incubator.” left out

BT474 cells = test: Oxidative stress assay (Muse Oxidative Stress Kit), BT474; type: cell-based, human
Description: Oxidative stress was assessed after cell culture and incubation (as described above). For this, cells were harvested by trypsinization, washed with ice-cold PBS buffer (pH 7.4), and centrifuged (1000 rpm, 5 min). The resulting cells were resuspended in PBS. Cell population analysis for oxidative stress was performed on a Muse cell analyzer (Merck Millipore, Burlington, MA, USA) using the Muse Oxidative Stress Kit (MCH100111) according to the manufacturer’s protocol.

rat liver mitochondria [6] = test: Respiration of isolated mitochondria fueled by glutamate and malate; type: biochemical
Description: (§3) Mitochondria were obtained from the liver of male Wistar rats (210–250 g) using the differential centrifugation method. The detailed procedure and composition of the isolation media were described earlier. The suspension of isolated mitochondria contained about 60–70 mg of mitochondrial protein per ml (determined by the Bradford method).
(§4) The rate of O2 consumption by mitochondrial samples was estimated using Oxygraph Plus (Hansatech Instruments Ltd., Pentney, King’s Lynn, UK). The reaction medium included 200 mM sucrose, 20 mM KCl, 0.5 mM EGTA, 5 mM KH2PO4, and 10 mM Hepes/KOH, pH 7.4. The following combinations of substrates and reagents were used: 2.5 mM potassium glutamate + 2.5 mM potassium malate and 5 mM potassium succinate + 1 µM rotenone. Under these conditions, it is possible to assess the oxygen-consuming capacity of mitochondria through complexes I and II of the electron transport chain. To determine the rates of the phosphorylating respiration (State 3) and uncoupled respiration (State 3UDNP) of the mitochondria, 200 µM ADP and 50 µM 2,4-dinitrophenol (DNP) were added sequentially. The concentration of mitochondrial protein was 1 mg/mL.

rat liver mitochondria [7] = test: Respiration of isolated mitochondria fueled by succinate; type: biochemical
Description: as §3, §4

rat liver mitochondria [8] = test: Mitochondrial membrane potential (TPP-sensitive electrode); type: biochemical; conditions: glutamate + malate or succinate + rotenone, Figure 5
Description: as §3
The mitochondrial membrane potential (Δψ) was measured using a penetrating tetraphenylphosphonium bromide (TPP) cation and a TPP-sensitive electrode (Nico-Analyte Ltd., Moscow, Russia) as described previously. The concentration of mitochondrial protein was 1 mg/mL.

rat liver mitochondria [9] = test: Mitochondrial H2O2 generation (Amplex Red); type: biochemical; conditions: 5 μM
Description: as §3
The fluorescent probe Amplex Red (λex = 560 nm; λem = 590 nm) and a plate reader Varioskan Lux were used to register mitochondrial H2O2 generation. In this case, 0.15 mg of mitochondrial protein was incubated in the buffer containing 210 mM mannitol, 70 mM sucrose, 10 μM EGTA, 10 µM Amplex Red, 1 µM rotenone, 10 µM EGTA, horseradish peroxidase (HRP 1 a.u./mL), 10 mM Hepes/KOH, and at a pH of 7.4. […] The kinetics of H2O2 generation was recorded for three minutes.

SMILES | IC50 [1] [nM] | IC50 [2] [nM] | IC50 [3] [nM] | Chou–Talalay combination index (CI) [3] | IC50 [4] [µM] | IC50 [5] [µM] | Selectivity index (SI) [5] | ADP/O (rat liver mitochondria [6]; 10 μM) [rel. un.] | RC (state 3/state 4) (rat liver mitochondria [6]; 10 μM) [rel. un.] | State 2 respiration (rat liver mitochondria [6]; 10 μM) [nmol O2/min/mg Protein] | State 3UDNP respiration (rat liver mitochondria [6]; 10 μM) [nmol O2/min/mg Protein] | State 3 respiration (rat liver mitochondria [6]; 10 μM) [nmol O2/min/mg Protein] | State 4 respiration (rat liver mitochondria [6]; 10 μM) [nmol O2/min/mg Protein] | ADP/O (rat liver mitochondria [6]; 20 μM) [rel. un.] | RC (state 3/state 4) (rat liver mitochondria [6]; 20 μM) [rel. un.] | State 2 respiration (rat liver mitochondria [6]; 20 μM) [nmol O2/min/mg Protein] | State 3UDNP respiration (rat liver mitochondria [6]; 20 μM) | State 3 respiration (rat liver mitochondria [6]; 20 μM) [nmol O2/min/mg Protein] | State 4 respiration (rat liver mitochondria [6]; 20 μM) [nmol O2/min/mg Protein] | ADP/O (rat liver mitochondria [7]; 10 μM) [rel. un.] | also measured
CC1CCC2(C(=O)OCCCC[n+]3ccc(C=Cc4c[nH]c5ccccc45)cc3)CCC3(C)C(=CCC4C5(C)CCC(O)C(C)(C)C5CCC43C)C2C1C (stereo not shown) [UA-F16] | 2800 ± 250 | 2400 ± 300 | 1360 ± 740 | 0.05 | 5.18 ± 0.15 | 4.98 ± 0.9 | 1.8–3.7 | 2.65 ± 0.05 | 2.20 ± 0.04 | 7.70 ± 0.33 | 35.23 ± 0.89 | 25.89 ± 0.86 | 11.78 ± 0.22 | 0.74 ± 0.14 | 1.02 ± 0.02 | 14.75 ± 0.21 | 28.29 ± 1.18 nmol O2/min/mg Protein | 19.35 ± 0.90 | 19.06 ± 1.11 | 1.28 ± 0.04 | Selectivity against tumor cells and human fibroblasts ([5]; in words): highest selectivity; Effect on level of ROS-positive cells (BT474 cells; BT474, 3 μM): significantly increase the level of ROS-positive cells; RC (state 3/state 4) (rat liver mitochondria [7]; 10 μM): 2.65 ± 0.07 rel. un.; State 2 respiration (rat liver mitochondria [7]; 10 μM): 14.42 ± 0.24 nmol O2/min/mg Protein; State 3UDNP respiration (rat liver mitochondria [7]; 10 μM): 67.34 ± 2.12 nmol O2/min/mg Protein; State 3 respiration (rat liver mitochondria [7]; 10 μM): 46.39 ± 0.30 nmol O2/min/mg Protein; State 4 respiration (rat liver mitochondria [7]; 10 μM): 17.51 ± 0.23 nmol O2/min/mg Protein; ADP/O (rat liver mitochondria [7]; 20 μM): 0.86 ± 0.05 *#^γ rel. un.; RC (state 3/state 4) (rat liver mitochondria [7]; 20 μM): 1.37 ± 0.11 rel. un.; State 2 respiration (rat liver mitochondria [7]; 20 μM): 15.86 ± 0.40 nmol O2/min/mg Protein; State 3UDNP respiration (rat liver mitochondria [7]; 20 μM): 64.18 ± 3.81 nmol O2/min/mg Protein; State 3 respiration (rat liver mitochondria [7]; 20 μM): 43.98 ± 1.31 nmol O2/min/mg Protein; State 4 respiration (rat liver mitochondria [7]; 20 μM): 32.20 ± 1.68 nmol O2/min/mg Protein
CC1(C)CCC2(C(=O)OCCCC[n+]3ccc(C=Cc4c[nH]c5ccccc45)cc3)CCC3(C)C(=CCC4C5(C)CCC(O)C(C)(C)C5CCC43C)C2C1 (stereo not shown) [OA-F16] | 930 ± 70 | 740 ± 90 | 1520 ± 160 | 0.03 | 4.34 ± 0.28 | 2.05 ± 0.58 | 1.3–2.8 | 2.80 ± 0.13 | 2.24 ± 0.11 | 6.47 ± 0.27 | 31.34 ± 0.49 | 23.82 ± 0.53 | 10.65 ± 0.24 | 0.64 ± 0.05 | 1.03 ± 0.04 | 15.38 ± 0.30 | 23.24 ± 0.61 *#^γ nmol O2/min/mg Protein | 17.02 ± 0.97 | 16.55 ± 0.54 | 1.41 ± 0.09 | Effect on level of ROS-positive cells (BT474 cells; BT474, 2 μM): significantly increase the level of ROS-positive cells; RC (state 3/state 4) (rat liver mitochondria [7]; 10 μM): 2.83 ± 0.20 rel. un.; State 2 respiration (rat liver mitochondria [7]; 10 μM): 14.39 ± 0.65 nmol O2/min/mg Protein; State 3UDNP respiration (rat liver mitochondria [7]; 10 μM): 69.57 ± 1.73 nmol O2/min/mg Protein; State 3 respiration (rat liver mitochondria [7]; 10 μM): 48.46 ± 0.82 nmol O2/min/mg Protein; State 4 respiration (rat liver mitochondria [7]; 10 μM): 17.22 ± 0.93 nmol O2/min/mg Protein; ADP/O (rat liver mitochondria [7]; 20 μM): 1.15 ± 0.05 rel. un.; RC (state 3/state 4) (rat liver mitochondria [7]; 20 μM): 1.25 ± 0.10 rel. un.; State 2 respiration (rat liver mitochondria [7]; 20 μM): 14.05 ± 0.18 nmol O2/min/mg Protein; State 3UDNP respiration (rat liver mitochondria [7]; 20 μM): 56.46 ± 4.21 nmol O2/min/mg Protein; State 3 respiration (rat liver mitochondria [7]; 20 μM): 41.57 ± 1.36 nmol O2/min/mg Protein; State 4 respiration (rat liver mitochondria [7]; 20 μM): 33.23 ± 0.75 nmol O2/min/mg Protein; Effect on membrane potential of organelles (rat liver mitochondria [8]): the most effective; Effect on production of H2O2 by organelles (rat liver mitochondria [9]): antioxidant effect

From paper PMC10303159, “Conjugation of Triterpenic Acids of Ursane and Oleanane Types with Mitochondria-Targeting Cation F16 Synergistically Enhanced Their Cytotoxicity against Tumor Cells” (Membranes, 2023)
